Measurements reported in patent US20220251081A1, “HETEROBICYCLIC INHIBITORS OF MAT2A AND METHODS OF USE FOR TREATING CANCER” (priority 2019, published 2022).

Assays:
MAT2A homodimer = biological target: T1, MAT2A homodimer (Homo sapiens, UniProt P31153); assay: Biochemical assay: inhibition of recombinant MAT2A homodimer (phosphate release, PiColorLock Gold); details: MAT2A IC50 score; read-out: Enzyme Inhibition
T1 construct: inferred from Ni sepharose purification and imidazole elution; made in house; host or cells: Sf9 insect cells, recombinant baculovirus (Bac to Bac, pFASTBAC1 vector)
Method: Mat2A protein was expressed by recombinant baculovirus in SF9 infected cells using the Bac to Bac system cloned into the pFASTBAC1 vector (Invitrogen, Carlsbad, Calif.). Recombinant MAT2A was isolated from the cell lysate of 150 g of infected cells using HP Ni sepharose column chromatography. Recombinant MAT2A homodimer was eluted with 250 and 500 mM imidazole, and fractions containing MAT2A were identified by sodium dodecyl sulfate polyacrylamide gel electrophoresis and pooled.
For determination of the inhibitory potency of compounds against the MAT2A homodimer, protein was diluted to 4 μg/mL in assay buffer (50 mM Tris, pH 8.0, 50 mM KCl, 15 mM MgCl2, 0.3 mM EDTA, 0.005% [w/v] bovine serum albumin [BSA]). Test compound was prepared in 100% dimethyl sulfoxide (DMSO) at 50× the desired final concentration. A 1 μL volume of compound dilution was added to 40 μL of enzyme dilution and the mixture was allowed to equilibrate for 60 minutes at 25° C. The enzymatic assay was initiated by the addition of 10 μL of substrate mix (500 μM ATP, pH 7.0, 40 μM L-methionine in 1× assay buffer), and the mixture was incubated for a further 60 minutes at 25° C. The reaction was halted and the liberated phosphate released by the enzyme in stoichiometric amounts by the production of S-adenosyl methionine (SAM) was measured using the PiColorLock Gold kit (Innova Biosciences, UK). Absolute product amounts were determined by comparison to a standard curve of potassium phosphate buffer, pH 8.0.

[1] = test system: SAM in HCT116 human colon carcinoma cell line with deleted MTAP gene; assay: Cellular assay of target engagement (SAM): SAM level by LC-MS/MS after 72 hrs; type: cell-based; details: HCT-116, IC50 score, read-out: Cell 72 h SAM Inhibition (MTAP −/−)
Method: Cellular Assay of Target Engagement (SAM)
Measurement of MAT2A activity in cells was made by direct quantitation of the abundance of the product of its enzymatic activity, SAM. Cancer cells were treated with candidate MAT2A inhibitors for a suitable incubation period, and the cells were then lysed using a reagent which quenched any further enzyme activity. Soluble metabolites including SAM were collected and SAM itself was directly measured from the lysate using quantitative LC-MS/MS.
A typical assay was performed using an HCT116 human colon carcinoma cell line which was genetically engineered to delete the MTAP gene (commercially available from Horizon Discovery). This cell line was utilized because it was determined that loss of the MTAP gene predicts sensitivity to MAT2A inhibitors. Cells were plated in 96-well dishes at appropriate cell density. Following 24 hours, cells were then treated with the candidate MAT2A inhibitor. Prior to addition to cells, the compound was first serially diluted in 100% DMSO, typically as a 3-fold serial dilution starting at 500× top dose with 10 dose points including DMSO only control. Compound was then transferred to a working stock plate in cell culture media by adding 5 μL of compound in DMSO to 495 μL of cell culture media. This working stock was then added to cells via a further 5-fold dilution, by adding 25 μL of working stock to 100 μL of cells in culture media. Following compound addition, cells were incubated at 37° C./5% CO2 for 72 hrs.
To quantitate SAM levels following compound treatment, cells were gently washed once in ammonium carbonate buffer (75 mM at pH 7.4), placed on dry ice, and lysed with metabolite extraction buffer (80% cold methanol and 20% water (v/v) with acetic acid at 1M final concentration with 200 ng/mL deuterated d3-SAM as internal control). Following centrifugation at 4° C. at 3,200 rpm for 30 minutes, the supernatant was collected and stored at −80° C. until analysis by Liquid Chromatography with tandem Mass Spectrometry (LC-MS/MS). LC-MS/MS analysis was performed using an API6500 Mass Spectrometer (Sciex, Framingham, Mass., USA) operating in positive ion spray mode and equipped with a Waters UPLC Acquity (Waters, Milford, Mass., USA) BEH Amide column. Multiple Reaction Monitoring data was acquired for SAM and the d3-SAM standard, using a mass transition pair at m/z 399.2→250.1 and 402.2→250.1, respectively. In a typical LC-MS/MS analysis, the initial flow rate was 0.5 ml/min of 25% mobile phase A (acetonitrile and water at 5:95 (v/v) with 1% formic acid and 10 mM ammonium acetate) and 75% mobile phase B (acetonitrile and water at 95:5 (v/v) with 1% formic acid and 10 mM ammonium acetate), 0.2-0.5 minutes with 75%-35% mobile phase B, 25%-65% mobile phase A, at 0.5 min 65% mobile phase A and 35% mobile phase B, 1.0-1.1 minutes with 35%-75% mobile phase B, 65%-25% mobile phase A, at 1.1 min 25% mobile phase A and 75% mobile phase B with a total run time of 1.5 minutes.

HCT116 MTAP-/- = assay: Inhibition of cellular proliferation, 4 days, Cell Titer Glo, HCT116 MTAP-/-; type: cell-based; details: Homo sapiens, HCT-116, 96 h, IC50 score, read-out: 4 Day Relative Growth Inhibition (MTAP −/−)
Method: (§1) Assay for Inhibition of Cellular Proliferation
(§2) Test compound impact on cancer cell growth was assessed by treating cancer cells with compound for 4 days and then measuring proliferation using an ATP-based cell proliferation readout (Cell Titer Glo, Promega Corporation).
(§3) In a typical assay an isogenic pair of HCT116 human colon carcinoma cell lines which vary only in MTAP deletion status (HCT116 MTAP +/+ and HCT116 MTAP−/−) were plated in 96-well dishes at appropriate cell density. Following 24 hours, cells were then treated with the candidate MAT2A inhibitor. Prior to addition to cells, the compound was first serially diluted in 100% DMSO, typically as a 3-fold serial dilution starting at 500× top dose with 10 dose points including DMSO only control. Compound was then transferred to a working stock plate in cell culture media by adding 5 μL of compound in DMSO to 495 μL of cell culture media. This working stock was then added to cells via a further 5-fold dilution, by adding 25 μL of working stock to 100 μL of cells in culture media. Following compound addition, cells were incubated at 37° C./5% C02 for 4 days.
(§4) To measure inhibition of cellular proliferation, cells were allowed to equilibrate to room temperature for 30 minutes, and were then treated with 125 μL of Cell Titer Glo reagent. The plate was then covered with aluminum foil and shaken for 15 minutes to ensure complete mixing and full cell lysis. Luminescent signal was then measured using a plate-based luminometer Veritas version 1.9.2 using ATP standard curve to confirm assay reproducibility from run to run. This luminescence measure was converted to a proliferation index by subtracting from each data point the ATP luminescence signal measured from a bank (no cells) well and dividing by the ATP luminescence signal measured in 0.2% DMSO control well adjusted for signal in blank well. Compound activity was then represented as a percentage change in proliferation relative to a within-plate DMSO control against log 10 of compound concentration in molar (M) units.

HCT116 MTAP +/+ = assay: Inhibition of cellular proliferation, 4 days, Cell Titer Glo, HCT116 MTAP+/+; type: cell-based; details: Homo sapiens, HCT-116, 96 h, IC50 score, read-out: 4 Day Relative Growth Inhibition (MTAP +/+)
Method: as §1, §2, §3, §4

T1 sequence (P31153 whole entry): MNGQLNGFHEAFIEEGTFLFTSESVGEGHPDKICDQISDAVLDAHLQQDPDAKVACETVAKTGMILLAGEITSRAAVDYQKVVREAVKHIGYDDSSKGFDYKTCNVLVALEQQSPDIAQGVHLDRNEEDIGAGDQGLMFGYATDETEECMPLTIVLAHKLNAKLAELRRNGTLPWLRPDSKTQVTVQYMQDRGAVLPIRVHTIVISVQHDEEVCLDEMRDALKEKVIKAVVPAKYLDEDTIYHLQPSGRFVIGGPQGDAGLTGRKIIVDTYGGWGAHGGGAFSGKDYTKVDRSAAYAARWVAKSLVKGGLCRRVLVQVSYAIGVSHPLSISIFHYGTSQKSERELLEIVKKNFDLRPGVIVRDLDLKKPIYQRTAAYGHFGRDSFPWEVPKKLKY

| IC50 (MAT2A homodimer) [nM] | IC50 [1] [nM] | IC50 (HCT116 MTAP-/-) [nM] | IC50 (HCT116 MTAP +/+) [nM] | SMILES |
| --- | --- | --- | --- | --- |
| < 100 | < 100 | < 100 |  | CCOc1ccc2cc(-c3ccc4nncn4c3)c(=O)n(-c3ccc(C4CC4)nc3)c2n1 [Example 215] |
| < 100 | < 100 | 100 to 1000 | ≥ 1000 | COc1ccc(-c2cc3ccc(NCC(F)(F)F)nc3n(-c3ccc(OC(F)F)cc3)c2=O)cc1 [Example 130, 1-(4-(difluoromethoxy)phenyl)-3-(4-methoxyphenyl)-7-(2,2,2-trifluoroethylamino)-1,8-naphthyridin-2(1H)-one] |
| < 100 | < 100 | < 100 | ≥ 1000 | COc1ccc(-c2cc3cnc(NCC(F)(F)F)nc3n(-c3ccc(-c4ccn[nH]4)cc3)c2=O)cc1 [Example 233, 8-(4-(1H-pyrazol-5-yl)phenyl)-6-(4-methoxyphenyl)-2-(2,2,2-trifluoroethylamino)pyrido[2,3-d]pyrimidin-7(8H)-one] |
| < 100 | 100 to 1000 | 100 to 1000 | ≥ 1000 | COc1ccc(-n2c(=O)c(-c3ccc(=O)[nH]c3)cc3cnc(NCC(F)(F)F)nc32)cc1 [Example 235, 8-(4-methoxyphenyl)-6-(6-oxo-1,6-dihydropyridin-3-yl)-2-(2,2,2-trifluoroethylamino)pyrido[2,3-d]pyrimidin-7(8H)-one] |
| < 100 | < 100 | < 100 | 100 to 1000 | [2H]C([2H])([2H])Oc1ccc(-n2c(=O)c(-c3ccc4nn(C)cc4c3)cc3ccc(OCCF)nc32)cc1 [Example 302] |
| < 100 | < 100 | < 100 | 100 to 1000 | CCOc1ccc2cc(-c3ccc4nnn(C)c4c3)c(=O)n(-c3ccc(Cl)cc3)c2n1 [Example 200] |
| < 100 | < 100 | 100 to 1000 | 100 to 1000 | CCOc1ccc2cc(-c3ccc4nn(CC(C)(C)O)cc4c3)c(=O)n(-c3ccc(Cl)cc3)c2n1 [Example 196] |
| < 100 | < 100 | < 100 | ≥ 1000 | [2H]C([2H])([2H])Oc1ccc(-n2c(=O)c(-c3ccc4nn(C)cc4c3)nc3ccc(OC(C)C)nc32)cc1 [Example 331] |
| < 100 | 100 to 1000 | 100 to 1000 | ≥ 1000 | COc1ccc(-n2c(=O)c(-c3ccc(=O)n(C)c3)cc3cnc(NCC(F)(F)F)nc32)cc1 [Example 180] |
| < 100 | < 100 | < 100 | ≥ 1000 | [2H]C([2H])([2H])Oc1ccc(-n2c(=O)c(-c3ccc4nn(C)cc4c3)nc3ccc(OCC(F)F)nc32)cc1 [Example 325] |
| < 100 | < 100 | < 100 | ≥ 1000 | COc1ccc(-c2nc3ccc(NCC(F)(F)F)nc3n(-c3ccc(OC(F)F)cc3)c2=O)cc1 [Example 227] |
| < 100 | < 100 | < 100 | ≥ 1000 | CCOc1ccc2cc(-c3ccn4nccc4c3)c(=O)n(-c3ccc(Cl)cc3)c2n1 [Example 204] |
| < 100 | < 100 | 100 to 1000 | ≥ 1000 | CCOc1ccc2cc(-c3ccc4nncn4c3)c(=O)n(-c3ccc(OC(F)(F)F)cc3)c2n1 [Example 219] |
| < 100 | < 100 | < 100 | 100 to 1000 | CCOc1ccc2cc(-c3ccc4ncn(C)c4c3)c(=O)n(-c3ccc(Cl)cc3)c2n1 [Example 195] |
| < 100 | < 100 | < 100 | ≥ 1000 | CCOc1ccc2nc(-c3ccc4nn(C)cc4c3)c(=O)n(-c3ccc(C4CC4)cc3)c2n1 [Example 330] |
| < 100 | < 100 | < 100 | 100 to 1000 | CCOc1ccc2cc(-c3ccc4nn(C)cc4c3)c(=O)n(-c3ccc(OC)nc3)c2n1 [Example 157] |
| < 100 | < 100 | 100 to 1000 | ≥ 1000 | COc1ccc(-c2cc3cnc(NCC(F)(F)F)nc3n(-c3ccc(OC)cc3)c2=O)cc1 [Example 115] |
| < 100 | < 100 | < 100 | 100 to 1000 | COc1ccc(-n2c(=O)c(-c3ccc4nn(C)cc4c3)cc3ccc(OCC(F)F)nc32)cn1 [Example 124] |
| < 100 | < 100 | < 100 | ≥ 1000 | CNc1ccc(-n2c(=O)c(-c3ccc4nn(C)cc4c3)cc3ccc(OCC(F)(F)F)nc32)cn1 [Example 167] |
| < 100 | 100 to 1000 | 100 to 1000 | ≥ 1000 | CCOc1ccc2cc(-c3ccc(OC)cc3)c(=O)n(-c3ccc(C4CC4)cc3)c2n1 [Example 163] |
| < 100 | < 100 | < 100 | ≥ 1000 | CCOc1ccc2cc(-c3ccc4nn(C)cc4c3)c(=O)n(-c3ccc(OC(F)(F)F)cc3)c2n1 [Example 153] |
| < 100 | < 100 | < 100 | 100 to 1000 | Cn1cc2cc(-c3cc4ccc(OCC(F)F)nc4n(-c4ccc(Br)cc4)c3=O)ccc2n1 [Example 318] |
| < 100 | < 100 |  |  | [2H]C([2H])([2H])Oc1ccc(-n2c(=O)c(-c3ccc4nn(C)cc4c3)cc3ccc(O[C@H](C)C(F)(F)F)nc32)cc1 [Example 304] |
